Values quoted from earlier work as cited in PMC6256190 (Biomedical Reports, 2018).

Settings: dry extract of ginger 100 mg to 2 g, 27 healthy American participants; glucuronides were detected

CCCCC[C@H](O)CC(=O)CCc1ccc(O)c(OC)c1 [6-gingerol]
Free compound in plasma: no free
